Experimental data reported in patent US20070128217A1 (priority 2003, published 2007).

Legend:
[1] = test system: antibodies in sera from SARS patients (sera 1a, 1b, 2, 6, 37, 62, London, SARS-yellow, SARS-green); format: binding, human; parameters: Binding of serum 6 to linear peptides of protein X1 of SARS-CoV Urbani / Binding of serum 37 to linear peptides of protein X1 of SARS-CoV Urbani / Binding of serum 6 to looped/cyclic peptide (PEPSCAN-ELISA) / Binding of serum 37 to looped/cyclic peptide (PEPSCAN-ELISA) / Binding of serum 37 to looped/cyclic peptides of protein X1 of SARS-CoV Urbani / Binding of serum 6 to linear peptides of protein X2 / Binding of serum 37 to linear peptides of protein X2 / Binding of serum 37 to looped/cyclic peptides of protein X2 of SARS-CoV Urbani / Binding of serum 6 to linear peptides of protein M of SARS-CoV Urbani / Binding of serum 37 to linear peptides of protein M of SARS-CoV Urbani / Binding of serum 6 to looped/cyclic peptides of protein M of SARS-CoV Urbani / Binding of serum 37 to looped/cyclic peptides of protein M of SARS-CoV Urbani / Binding of serum 6 to linear peptides of protein X3 of SARS-CoV Urbani / Binding of serum 37 to linear peptides of protein X3 of SARS-CoV Urbani / Binding of serum 37 to looped/cyclic peptides of protein X3 of SARS-CoV Urbani / Binding of serum 6 to linear peptides of protein X4 of SARS-CoV Urbani / Binding of serum 37 to linear peptides of protein X4 of SARS-CoV Urbani / Binding of serum 37 to looped/cyclic peptides of protein X4 of SARS-CoV Urbani / Binding of serum 6 to linear peptides of protein X5 of SARS-CoV Urbani / Binding of serum 37 to linear peptides of protein X5 of SARS-CoV Urbani / Binding of serum 37 to looped/cyclic peptides of protein X5 of SARS-CoV Urbani / Binding of serum 6 to linear peptides of protein N of SARS-CoV Urbani / Binding of serum 37 to linear peptides of protein N of SARS-CoV Urbani / Binding of serum 6 to linear peptide (PEPSCAN-ELISA) / Binding of serum 1a to looped/cyclic peptides of protein N of SARS-CoV Urbani / Binding of serum 1b to looped/cyclic peptides of protein N of SARS-CoV Urbani / Binding of serum 2 to looped/cyclic peptides of protein N of SARS-CoV Urbani / Binding of serum 6 to looped/cyclic peptides of protein N of SARS-CoV Urbani / Binding of serum 37 to looped/cyclic peptides of protein N of SARS-CoV Urbani / Binding of serum 62 to looped/cyclic peptides of protein N of SARS-CoV Urbani / Binding of serum London to looped/cyclic peptides of protein N of SARS-CoV Urbani / Binding of serum SARS-green to looped/cyclic peptides of protein N of SARS-CoV Urbani: unit not given here
[2] = test system: control sera (pooled serum of ten healthy LUMC hospital workers; commercial negative donor pooled serum from the Dutch bloodbank); format: binding, human; parameters: Binding of Control serum LUMC to linear peptides / Binding of Control serum Blood-bank to linear peptides / Binding of Control serum LUMC to looped peptides / Binding of Control Serum Blood-Bank to Looped peptides / Binding of Control serum LUMC to linear peptides of the protein M of SARS-CoV Urbani / Binding of Control serum Blood-bank to linear peptides of the protein M of SARS-CoV Urbani / Binding of Control serum LUMC to looped peptides of the protein M of SARS-CoV Urbani / Binding of Control Serum Blood-Bank to Looped peptides of the protein M of SARS-CoV Urbani: unit not given here
[3] = test system: rabbit serum obtained by immunizing a rabbit with the SARS-CoV strain Frankfurt 1; format: binding; parameters: Binding of a rabbit serum to linear peptides / Binding of a rabbit serum to looped peptides / Rabbit serum linear peptides / Rabbit serum looped peptides / Binding of a rabbit serum to linear peptides of protein N of SARS-CoV Urbani (Rabbit serum linear peptides) / Binding of a rabbit serum to looped/cyclic peptides of protein N of SARS-CoV Urbani (Rabbit serum looped peptides): unit not given here

QFMMSRRRLLACLCK
Binding of serum 1a to linear peptides of protein X2 [1]: 0.7 | Binding of serum 1a to looped/cyclic peptides of protein X2 of SARS-CoV Urbani [1]: 0.4 | Binding of serum 1b to linear peptides of protein X2 [1]: 0.5 | Binding of serum 1b to looped/cyclic peptides of protein X2 of SARS-CoV Urbani [1]: 0.5 | Binding of serum 2 to linear peptides of protein X2 [1]: 0.5 | Binding of serum 2 to looped/cyclic peptides of protein X2 of SARS-CoV Urbani [1]: 0.5 | Binding of serum 6 to linear peptides of protein X2 [1]: 0.6 | Binding of serum 6 to looped/cyclic peptides of protein X2 of SARS-CoV Urbani [1]: 0.1 | Binding of serum 37 to linear peptides of protein X2 [1]: 0.5 | Binding of serum 37 to looped/cyclic peptides of protein X2 of SARS-CoV Urbani [1]: 0.4 | Binding of serum 62 to linear peptides of protein X2 [1]: 0.6 | Binding of serum 62 to looped/cyclic peptides of protein X2 of SARS-CoV Urbani [1]: 0.5 | Binding of serum London to linear peptides of protein X2 [1]: 0.6 | Binding of serum London to looped/cyclic peptides of protein X2 of SARS-CoV Urbani [1]: 0.2 | Binding of serum SARS-green to linear peptides of protein X2 [1]: 0.4 | Binding of serum SARS-green to looped/cyclic peptides of protein X2 of SARS-CoV Urbani [1]: 0.4 | Binding of serum SARS-yellow to linear peptides of protein X2 [1]: 0.4 | Binding of serum SARS-yellow to looped/cyclic peptides of protein X2 of SARS-CoV Urbani [1]: 0.3 | Binding of Control Serum Blood-Bank to Looped peptides [2]: 0.3 | Binding of Control serum Blood-bank to linear peptides [2]: 0.7 | Binding of Control serum LUMC to linear peptides [2]: 0.5 | Binding of Control serum LUMC to looped peptides [2]: 0.4 | Binding of a rabbit serum to linear peptides [3]: 0.5 | Binding of a rabbit serum to looped peptides [3]: 1.9

QLALYKGFQFICNLL
Binding of serum 1a to looped/cyclic peptide (PEPSCAN-ELISA) [1]: 0.5 | Binding of serum 1b to looped/cyclic peptide (PEPSCAN-ELISA) [1]: 0.4 | Binding of serum 2 to looped/cyclic peptide (PEPSCAN-ELISA) [1]: 0.4 | Binding of serum 6 to looped/cyclic peptide (PEPSCAN-ELISA) [1]: 1.2 | Binding of serum 37 to looped/cyclic peptide (PEPSCAN-ELISA) [1]: 0.5 | Binding of serum 62 to looped/cyclic peptide (PEPSCAN-ELISA) [1]: 0.5 | Binding of serum London to looped/cyclic peptide (PEPSCAN-ELISA) [1]: 1.5 | Binding of serum SARS-green to looped/cyclic peptide (PEPSCAN-ELISA) [1]: 0.3 | Binding of serum SARS-yellow to looped/cyclic peptide (PEPSCAN-ELISA) [1]: 0.5 | Binding of Control Serum Blood-Bank to Looped peptides [2]: 0.5 | Binding of Control serum Blood-bank to linear peptides [2]: 0.6 | Binding of Control serum LUMC to linear peptides [2]: 0.5 | Binding of Control serum LUMC to looped peptides [2]: 0.6 | Binding of a rabbit serum to linear peptides [3]: 0.3 | Binding of a rabbit serum to looped peptides [3]: 0.6

QRVGTDSGFAAYNRY
Binding of serum 1a to linear peptides of protein M of SARS-CoV Urbani [1]: 0.7 | Binding of serum 1a to looped/cyclic peptides of protein M of SARS-CoV Urbani [1]: 0.6 | Binding of serum 1b to linear peptides of protein M of SARS-CoV Urbani [1]: 0.5 | Binding of serum 1b to looped/cyclic peptides of protein M of SARS-CoV Urbani [1]: 0.5 | Binding of serum 2 to linear peptides of protein M of SARS-CoV Urbani [1]: 0.5 | Binding of serum 2 to looped/cyclic peptides of protein M of SARS-CoV Urbani [1]: 0.5 | Binding of serum 6 to linear peptides of protein M of SARS-CoV Urbani [1]: 0.3 | Binding of serum 6 to looped/cyclic peptides of protein M of SARS-CoV Urbani [1]: 0.6 | Binding of serum 37 to linear peptides of protein M of SARS-CoV Urbani [1]: 0.7 | Binding of serum 37 to looped/cyclic peptides of protein M of SARS-CoV Urbani [1]: 0.6 | Binding of serum 62 to linear peptides of protein M of SARS-CoV Urbani [1]: 0.7 | Binding of serum 62 to looped/cyclic peptides of protein M of SARS-CoV Urbani [1]: 0.5 | Binding of serum London to linear peptides of protein M of SARS-CoV Urbani [1]: 0.3 | Binding of serum London to looped/cyclic peptides of protein M of SARS-CoV Urbani [1]: 0.2 | Binding of serum SARS-green to linear peptides of protein M of SARS-CoV Urbani [1]: 0.3 | Binding of serum SARS-green to looped/cyclic peptides of protein M of SARS-CoV Urbani [1]: 0.3 | Binding of serum SARS-yellow to linear peptides of protein M of SARS-CoV Urbani [1]: 0.1 | Binding of serum SARS-yellow to looped/cyclic peptides of protein M of SARS-CoV Urbani [1]: 0.6 | Binding of Control Serum Blood-Bank to Looped peptides of the protein M of SARS-CoV Urbani [2]: 0.7 | Binding of Control serum Blood-bank to linear peptides of the protein M of SARS-CoV Urbani [2]: 0.6 | Binding of Control serum LUMC to linear peptides of the protein M of SARS-CoV Urbani [2]: 0.3 | Binding of Control serum LUMC to looped peptides of the protein M of SARS-CoV Urbani [2]: 0.8 | Rabbit serum linear peptides [3]: 0.4 | Rabbit serum looped peptides [3]: 0.0
